This assay concerns KMS.12.BM cells. Description: KMS.12.BM Cell Viability Assay (Example B1). It counts as cell-based, human. The settings on record: 3 days, Cell Titer-GLO, read-out: KMS cellular IC50. The gist of the method: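 KMS.12.BM human myeloma cells, 5000 cells/well in RPMI with 10% FBS, exposed to a compound concentration range for 3 days. Viable cells measured by ATP-based Cell Titer-GLO luminescence after 10 min at room temperature.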

Each structure is given as a SMILES string. Where a name gives a salt, the structure may show the parent alone. Read-outs that look alike come from different tables or passages of the source.

In general, IC50 refers to the midpoint of a concentration-inhibition curve. With `CNC(=O)C1CCN(c2nc3ccc(-c4c(C)noc4C)c4c3n2[C@@H](c2ccccn2)CO4)CC1` [Example 189, 1-[(4S)-7-(3,5-dimethylisoxazol-4-yl)-4-pyridin-2-yl-4,5-dihydroimidazo[1,5,4-de][1,4]benzoxazin-2-yl]-N-methylpiperidine-4-carboxamide], the half-inhibitory concentration (IC50) (Homo sapiens, 72 h) was under 1000 nM.

Turning to `Cc1noc(C)c1-c1ccc2nc(N3CC[C@H](NC(=O)OC(C)(C)C)C3)n3c2c1OC[C@@H]3c1ccccn1` [Example 182B, tert-butyl {(3S)-1-[(4S)-7-(3,5-dimethylisoxazol-4-yl)-4-pyridin-2-yl-4,5-dihydroimidazo[1,5,4-de][1,4]benzoxazin-2-yl]pyrrolidin-3-yl}carbamate], the IC50 (Homo sapiens, 72 h) was under 1000 nM.

As to `Cc1noc(C)c1-c1ccc2nc(N3CCC(NS(C)(=O)=O)CC3)n3c2c1OC[C@@H]3c1ccccn1` [Example 240, N-{1-[(4S)-7-(3,5-dimethylisoxazol-4-yl)-4-pyridin-2-yl-4,5-dihydroimidazo[1,5,4-de][1,4]benzoxazin-2-yl]piperidin-4-yl}methanesulfonamide], the IC50 (Homo sapiens, 72 h) is under 1000 nM.

With `Cc1noc(C)c1-c1cc(C#N)c2[nH]c(=O)n3c2c1OCC3c1ccccn1` (stereo not shown) [Example 269A, 7-(3,5-dimethylisoxazol-4-yl)-2-oxo-4-pyridin-2-yl-1,2,4,5-tetrahydroimidazo[1,5,4-de][1,4]benzoxazine-9-carbonitrile], the 50% inhibitory concentration (IC50) (Homo sapiens, KMS-12-BM, 72 h) was under 1000 nM.

Consider `Cc1noc(C)c1-c1cc(C)c2[nH]c(=O)n3c2c1OCC3c1ccccc1` (stereo not shown) [Example 46, 7-(3,5-Dimethylisoxazol-4-yl)-9-methyl-4-phenyl-4,5-dihydroimidazo[1,5,4-de][1,4]benzoxazin-2(1H)-one], for which, for the setting “Homo sapiens, 72 h”, the IC50 was under 1000 nM.

Turning to `Cc1noc(C)c1-c1ccc2nc(N3CC(O)C3)n3c2c1OCC3c1ccccc1` (stereo not shown) [Example 59], the IC50 (Homo sapiens, 72 h) was under 1000 nM.

For `Cc1noc(C)c1-c1ccc2[nH]c(=O)n3c2c1OC(CO)C3c1ccccn1` (single isomer, unassigned) [Example 62C, 7-(3,5-Dimethylisoxazol-4-yl)-5-(hydroxymethyl)-4-pyridin-2-yl-4,5-dihydroimidazo[1,5,4-de][1,4]benzoxazin-2(1H)-one], the half-maximal inhibitory concentration (IC50) is under 1000 nM.

As to `Cc1noc(C)c1-c1ccc2nc(N(C)CCO)n3c2c1OCC3c1ccccn1` (stereo not shown) [Example 185, 2-[[7-(3,5-dimethylisoxazol-4-yl)-4-pyridin-2-yl-4,5-dihydroimidazo[1,5,4-de][1,4]benzoxazin-2-yl](methyl)amino]ethanol], the half-inhibitory concentration (IC50) (Homo sapiens, KMS-12-BM, 72 h) is under 1000 nM.

Regarding `Cc1noc(C)c1-c1ccc2c3c1CCC(c1ccccc1)n3c(=O)n2C` (racemic) [Example 121, 7-(3,5-Dimethylisoxazol-4-yl)-1-methyl-4-phenyl-5,6-dihydro-4H-imidazo[4,5,1-ij]quinolin-2(1H)-one], the concentration for half-maximal inhibition (IC50) (Homo sapiens, KMS-12-BM, 72 h) was under 1000 nM.

Regarding `Cc1noc(C)c1-c1ccc2nc(C3CCNCC3)n3c2c1OC[C@@H]3c1ccccn1` [Example 103], the concentration for half-maximal inhibition (IC50) (Homo sapiens, 72 h) was under 1000 nM.

Turning to `Cc1noc(C)c1-c1ccc2nc(N3CCCCC3)n3c2c1OCC3c1ccccc1` (stereo not shown) [Example 56, 7-(3,5-Dimethylisoxazol-4-yl)-4-phenyl-2-piperidin-1-yl-4,5-dihydroimidazo[1,5,4-de][1,4]benzoxazine], the IC50 (Homo sapiens, 72 h) was under 1000 nM.

Regarding `Cc1noc(C)c1-c1cc(-c2cn[nH]c2)c2[nH]c(=O)n3c2c1OCC3c1ccccn1` (stereo not shown) [Example 256, 7-(3,5-dimethylisoxazol-4-yl)-9-(1H-pyrazol-4-yl)-4-pyridin-2-yl-4,5-dihydroimidazo[1,5,4-de][1,4]benzoxazin-2(1H)-one], the IC50 (Homo sapiens, 72 h) is under 1000 nM.

Regarding `Cc1noc(C)c1-c1ccc2nc(N3CC[C@@H](NS(=O)(=O)C(C)C)C3)n3c2c1OC[C@@H]3c1ccccn1` [Example 217, N-{(3R)-1-[(4S)-7-(3,5-dimethylisoxazol-4-yl)-4-pyridin-2-yl-4,5-dihydroimidazo[1,5,4-de][1,4]benzoxazin-2-yl]pyrrolidin-3-yl}propane-2-sulfonamide], the IC50 (Homo sapiens, 72 h) is under 1000 nM.

In the case of `Cc1noc(C)c1-c1cc(Br)c2[nH]c(=O)n3c2c1OCC3c1ccccc1` (stereo not shown) [Example 45, 9-Bromo-7-(3,5-Dimethylisoxazol-4-yl)-4-phenyl-4,5-dihydroimidazo[1,5,4-de][1,4]benzoxazin-2(1H)-one], the IC50 (Homo sapiens, 72 h) is under 1000 nM.

For the molecule `Cc1noc(C)c1-c1ccc2nc(N3CCC(O)CC3)n3c2c1OCC3c1ccccc1` (stereo not shown) [Example 57, 1-[7-(3,5-Dimethylisoxazol-4-yl)-4-phenyl-4,5-dihydroimidazo[1,5,4-de][1,4]benzoxazin-2-yl]piperidin-4-ol], where the note is “Homo sapiens, 72 h”, the concentration for half-maximal inhibition (IC50) was under 1000 nM.

With `Cc1noc(C)c1-c1ccc2nc(N3CC(N)C3)n3c2c1OC[C@@H]3c1ccccn1` [Example 230, 1-[(4S)-7-(3,5-dimethylisoxazol-4-yl)-4-pyridin-2-yl-4,5-dihydroimidazo[1,5,4-de][1,4]benzoxazin-2-yl]azetidin-3-amine trihydrochloride], the 50% inhibitory concentration (IC50) (Homo sapiens, 72 h) is under 1000 nM.

For `Cc1noc(C)c1-c1ccc2nc(N3CCC(C)(O)C3)n3c2c1OC[C@@H]3c1ccccn1` (single isomer, unassigned) [Example 146A], the concentration for half-maximal inhibition (IC50) (Homo sapiens, KMS-12-BM, 72 h) is under 1000 nM.

`Cc1noc(C)c1-c1ccc2nc(N3CC(NC(=O)OC(C)(C)C)C3)n3c2c1OC[C@@H]3c1ccccn1` [Example 196, tert-butyl {1-[(4S)-7-(3,5-dimethylisoxazol-4-yl)-4-pyridin-2-yl-4,5-dihydroimidazo[1,5,4-de][1,4]benzoxazin-2-yl]azetidin-3-yl}carbamate]: where the note is “Homo sapiens, 72 h”, the IC50 is under 1000 nM.

For the molecule `Cc1noc(C)c1-c1ccc2[nH]c(=O)n3c2c1OCC3C1CCCCC1` (stereo not shown) [Example 17, 4-Cyclohexyl-7-(3,5-dimethylisoxazol-4-yl)-4,5-dihydroimidazo[1,5,4-de][1,4]benzoxazin-2(1H)-one], the IC50 (Homo sapiens, 72 h) is under 1000 nM.

Turning to `Cc1noc(C)c1-c1ccc2nc(N3CCN(CC(N)=O)CC3)n3c2c1OC[C@@H]3c1ccccn1` [Example 191, 2-{4-[(4S)-7-(3,5-dimethylisoxazol-4-yl)-4-pyridin-2-yl-4,5-dihydroimidazo[1,5,4-de][1,4]benzoxazin-2-yl]piperazin-1-yl}acetamide], the half-maximal inhibitory concentration (IC50) (Homo sapiens, 72 h) is under 1000 nM.

For `Cc1noc(C)c1-c1ccc2nc(N3CC[C@@H](NC(=O)C(C)C)C3)n3c2c1OC[C@@H]3c1ccccn1` [Example 209, N-{(3R)-1-[(4S)-7-(3,5-dimethylisoxazol-4-yl)-4-pyridin-2-yl-4,5-dihydroimidazo[1,5,4-de][1,4]benzoxazin-2-yl]pyrrolidin-3-yl}-2-methylpropanamide], the IC50 (Homo sapiens, 72 h) was under 1000 nM.

`Cc1noc(C)c1-c1ccc2[nH]c(=O)n3c2c1OC(C)(C)C3c1ccccn1` (single isomer, unassigned) [Example 61A, 7-(3,5-Dimethylisoxazol-4-yl)-5,5-dimethyl-4-pyridin-2-yl-4,5-dihydroimidazo[1,5,4-de][1,4]benzoxazin-2(1H)-one]: the IC50 (Homo sapiens, KMS-12-BM, 72 h) is under 1000 nM.

Consider `COC(=O)N[C@@H]1CCN(c2nc3ccc(-c4c(C)noc4C)c4c3n2[C@@H](c2ccccn2)CO4)C1` [Example 155, Methyl {(3R)-1-[(4S)-7-(3,5-dimethylisoxazol-4-yl)-4-pyridin-2-yl-4,5-dihydroimidazo[1,5,4-de][1,4]benzoxazin-2-yl]pyrrolidin-3-yl}carbamate], for which, for the setting “Homo sapiens, 72 h”, the IC50 is under 1000 nM.

As to `Cc1noc(C)c1-c1ccc2nc(N3CC[C@@H](NS(C)(=O)=O)C3)n3c2c1OC[C@@H]3c1ccccn1` [Example 207, N-{(3R)-1-[(4S)-7-(3,5-dimethylisoxazol-4-yl)-4-pyridin-2-yl-4,5-dihydroimidazo[1,5,4-de][1,4]benzoxazin-2-yl]pyrrolidin-3-yl}methanesulfonamide], the IC50 (Homo sapiens, 72 h) was under 1000 nM.

`Cc1noc(C)c1-c1ccc2nc(N3CCC(C)(O)C3)n3c2c1OC[C@@H]3c1ccccn1` (single isomer, unassigned) [Example 146B]: the IC50 was under 1000 nM.

In the case of `Cc1noc(C)c1-c1ccc2nc(N3CCN(CC4CC4)CC3)n3c2c1OC[C@@H]3c1ccccn1` [Example 183, (4S)-2-[4-(cyclopropylmethyl)piperazin-1-yl]-7-(3,5-dimethylisoxazol-4-yl)-4-pyridin-2-yl-4,5-dihydroimidazo[1,5,4-de][1,4]benzoxazine], the half-inhibitory concentration (IC50) (Homo sapiens, 72 h) was under 1000 nM.

On to `Cc1noc(C)c1-c1ccc2[nH]c(=O)n3c2c1OC(CO)C3c1ccccn1` (single isomer, unassigned) [Example 62B, 7-(3,5-Dimethylisoxazol-4-yl)-5-(hydroxymethyl)-4-pyridin-2-yl-4,5-dihydroimidazo[1,5,4-de][1,4]benzoxazin-2(1H)-one], for which the concentration for half-maximal inhibition (IC50) (Homo sapiens, 72 h) was under 1000 nM.

Take `Cc1noc(C)c1-c1cc(-c2cn[nH]c2C)c2[nH]c(=O)n3c2c1OCC3c1ccccn1` (stereo not shown) [Example 257, 7-(3,5-dimethylisoxazol-4-yl)-9-(3-methyl-1H-pyrazol-4-yl)-4-pyridin-2-yl-4,5-dihydroimidazo[1,5,4-de][1,4]benzoxazin-2(1H)-one]: where the note is “Homo sapiens, 72 h”, the 50% inhibitory concentration (IC50) is under 1000 nM.

For `COCC(=O)NC1CN(c2nc3ccc(-c4c(C)noc4C)c4c3n2[C@@H](c2ccccn2)CO4)C1` [Example 234, N-{1-[(4S)-7-(3,5-dimethylisoxazol-4-yl)-4-pyridin-2-yl-4,5-dihydroimidazo[1,5,4-de][1,4]benzoxazin-2-yl]azetidin-3-yl}-2-methoxyacetamide], the IC50 (Homo sapiens, 72 h) is under 1000 nM.

Regarding `Cc1noc(C)c1-c1cc(Cl)c2[nH]c(=O)n3c2c1OCC3c1ccccn1` (single isomer, unassigned) [Example 266A, 9-chloro-7-(3,5-dimethylisoxazol-4-yl)-4-pyridin-2-yl-4,5-dihydroimidazo[1,5,4-de][1,4]benzoxazin-2(1H)-one], the IC50 (Homo sapiens, KMS-12-BM, 72 h) was under 1000 nM.

Take `COc1ccc(CNCc2cc(-c3c(C)noc3C)c3c4c2[nH]c(=O)n4C(c2ccccn2)CO3)cc1` (stereo not shown) [Example 263, 7-(3,5-dimethylisoxazol-4-yl)-9-{[(4-methoxybenzyl)amino]methyl}-4-pyridin-2-yl-4,5-dihydroimidazo[1,5,4-de][1,4]benzoxazin-2(1H)-one]: where the note is “Homo sapiens, 72 h”, the half-inhibitory concentration (IC50) was under 1000 nM.

The values are drawn from patent publication US10464947B2 (Incyte Corporation, priority 2013, dated 2019).
